Reference: ChEMBL document CHEMBL1128650, “Non-peptide glycoprotein IIb/IIIa inhibitors. 6. Design and synthesis of rigid, centrally constrained non-peptide fibrinogen receptor antagonists” (Bioorg Med Chem Lett, 1995)

Assays:
[1] = biological target: Integrin alpha-IIb/beta-3 (Homo sapiens, UniProt P05106+P08514); test: Inhibition of fibrinogen binding to glycoprotein alpha IIb beta-3 integrin of activated platelets
Endothelial cell = test: Inhibition of human umbilical vein endothelial cell adhesion to fibrinogen, vitronectin and fibronectin coated surfaces;NI means no inhibition at 300 uM; type: functional, cell-based

Integrin alpha-IIb/beta-3, sequence (P05106 27-788 limits assumed): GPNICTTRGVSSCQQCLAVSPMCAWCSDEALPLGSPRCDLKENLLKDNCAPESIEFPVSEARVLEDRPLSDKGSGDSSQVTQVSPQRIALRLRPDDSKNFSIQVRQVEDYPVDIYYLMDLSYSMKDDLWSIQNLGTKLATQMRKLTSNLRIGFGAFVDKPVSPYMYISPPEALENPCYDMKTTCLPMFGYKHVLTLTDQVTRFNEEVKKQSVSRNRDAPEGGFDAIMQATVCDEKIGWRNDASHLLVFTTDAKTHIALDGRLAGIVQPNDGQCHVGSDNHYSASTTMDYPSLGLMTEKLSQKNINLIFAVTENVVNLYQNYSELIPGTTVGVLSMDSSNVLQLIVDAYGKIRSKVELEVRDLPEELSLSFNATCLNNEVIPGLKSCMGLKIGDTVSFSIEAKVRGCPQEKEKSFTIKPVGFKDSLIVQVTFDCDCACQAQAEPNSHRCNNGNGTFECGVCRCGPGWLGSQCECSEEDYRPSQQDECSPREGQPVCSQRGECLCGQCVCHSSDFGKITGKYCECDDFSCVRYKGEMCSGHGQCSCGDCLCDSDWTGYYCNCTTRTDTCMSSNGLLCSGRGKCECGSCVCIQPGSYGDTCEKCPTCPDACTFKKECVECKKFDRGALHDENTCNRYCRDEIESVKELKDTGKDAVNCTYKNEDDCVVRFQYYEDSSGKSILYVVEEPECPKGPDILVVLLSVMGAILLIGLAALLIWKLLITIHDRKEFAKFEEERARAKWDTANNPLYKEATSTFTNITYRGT
Integrin alpha-IIb/beta-3, sequence (P08514 32-887 limits assumed): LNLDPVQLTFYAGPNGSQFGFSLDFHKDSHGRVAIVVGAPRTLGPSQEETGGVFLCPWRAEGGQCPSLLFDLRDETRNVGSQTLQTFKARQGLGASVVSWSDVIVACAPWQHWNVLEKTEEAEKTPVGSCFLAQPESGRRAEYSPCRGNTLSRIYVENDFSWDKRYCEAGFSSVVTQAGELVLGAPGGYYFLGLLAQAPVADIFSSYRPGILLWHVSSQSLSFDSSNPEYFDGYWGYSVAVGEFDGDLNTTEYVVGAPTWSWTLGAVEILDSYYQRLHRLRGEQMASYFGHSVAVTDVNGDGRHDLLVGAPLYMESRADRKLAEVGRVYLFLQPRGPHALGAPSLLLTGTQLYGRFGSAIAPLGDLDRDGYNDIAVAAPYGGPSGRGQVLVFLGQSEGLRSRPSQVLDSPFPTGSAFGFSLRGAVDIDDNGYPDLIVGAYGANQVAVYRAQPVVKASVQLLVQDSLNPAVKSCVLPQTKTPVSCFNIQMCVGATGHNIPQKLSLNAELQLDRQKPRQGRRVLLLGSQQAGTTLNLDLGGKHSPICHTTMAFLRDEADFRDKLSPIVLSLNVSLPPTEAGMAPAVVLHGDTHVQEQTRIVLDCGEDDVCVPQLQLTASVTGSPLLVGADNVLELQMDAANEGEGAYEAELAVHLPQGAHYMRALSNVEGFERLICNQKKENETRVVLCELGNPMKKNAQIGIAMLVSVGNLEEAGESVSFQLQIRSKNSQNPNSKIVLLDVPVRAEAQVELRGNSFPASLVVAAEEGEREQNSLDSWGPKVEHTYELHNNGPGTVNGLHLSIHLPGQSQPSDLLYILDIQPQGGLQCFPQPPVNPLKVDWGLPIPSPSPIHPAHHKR
Integrin alpha-IIb/beta-3, sequence (P08514 891-1039 limits assumed): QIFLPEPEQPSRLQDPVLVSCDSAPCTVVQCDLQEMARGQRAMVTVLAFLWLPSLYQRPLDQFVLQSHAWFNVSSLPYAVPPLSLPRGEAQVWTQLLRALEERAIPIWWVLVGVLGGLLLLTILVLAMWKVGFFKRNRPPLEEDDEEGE

SMILES | IC50 [1] | inhibition (Endothelial cell)
O=C(O)CCNC(=O)c1cn2c(c1-c1ccccc1)C(=O)N(CCC1CCNCC1)CCC2 | > 300 µM | –
O=C(O)CNC(=O)c1cc2n(n1)CCN(CCCC1CCNCC1)C2=O | 14 µM | –
O=C(O)CCNC(=O)c1cc2n(n1)CCN(CC1CCNCC1)C2=O | 45 µM | –
O=C(O)CCCNC(=O)c1cc2n(n1)CCN(CC1CCNCC1)C2=O | 15 µM | –
O=C(O)CCN1CCn2nc(C(=O)NCCC3CCNCC3)cc2C1=O | 31 µM | –
O=C(O)CCNC(=O)c1cc2n(n1)CCN(CCCC1CCNCC1)C2=O | 1.3 µM | –
Cc1c(C(=O)NCCC(=O)O)cn2c1C(=O)N(CCC1CCNCC1)CCC2 | 0.51 µM | –

Compounds with a lower IC50 [1], results first:

IC50 [1] | SMILES | inhibition (Endothelial cell)
0.25 µM | O=C(O)CCNC(=O)c1cc2n(n1)CCN(CCC1CCNCC1)C2=O | –
0.17 µM | O=C(O)CCNC(=O)c1cc2n(c1)CCCN(CCC1CCNCC1)C2=O | –
0.17 µM | Cc1c(C(=O)NCCC(=O)O)cn2c1C(=O)N(CCC1CCNCC1)CC2 | –
0.079 µM | O=C(O)CCNC(=O)c1cc2n(c1)CCN(CCC1CCNCC1)C2=O | No inhibition
